Measured values published in US5334757A, “2-(2,3-dicarboxycyclopropyl) glycine and method for producing the same” (Suntory Limited, priority 1991, dated 1994).
“Also recorded” adds a separate entry of the source. Like-named read-outs stand apart in the source and are kept apart here.

Assays:
[1] = test system: non-NMDA type receptors; conditions: Tetrahedron Letters 31 (28), 4049-4052 (1990); Brain Res. 550, 152-156 (1991); cited from earlier work
[2] = test system: NMDA type receptors; conditions: Japanese Patent Laid-Open No. 093563/1991; cited from earlier work
[3] = test system: monosynaptic reflex in the newborn rat spinal cord preparation; conditions: reported value for Baclofen, cited from earlier work
[4] = test system: newborn rat spinal cord preparation; experiment: Measurement of depolarizing activity, newborn rat spinal cord preparation; type: cell-based; conditions: relative to L-glutamic acid = 1
[5] = test system: monosynaptic reflex in the newborn rat spinal cord preparation; experiment: Determination of monosynaptic reflex inhibition activity in the newborn rat spinal cord preparation; set-up: species or system newborn Wister rat; conditions: for concentration inhibiting (50%) monosynaptic reflex relative to the IC50 of Baclofen: as multiple of IC50 of Baclofen; for monosynaptic reflex inhibition (in words) / IC50: newborn rat spinal cord preparation; for IC50: read-out: IC50 (50% inhibitory concentration), monosynaptic reflex inhibition
Protocol: The spinal cord of a newborn Wister rat was taken out, as encircled by the spinal column, under etherization.
A single stimulation was applied to a posterior root via a suction electrode and the anterior root reflection potential of the corresponding anterior root was recorded.
DCG-I and DCG-II at various concentration were added to the perfusion solution and the monosynaptic reflexes thus caused were measured.

[6] = test system: NMDA receptors; experiment: Depolarization under perfusion with CPP (NMDA receptor agonism); type: cell-based, newborn rat; conditions: for depolarization on adding CPP: 3×10^-5 M CPP perfused; for NMDA type agonistic activity: electrophysiological assay, newborn rat spinal cord preparation

SMILES: N[C@H](C(=O)O)[C@@H]1[C@@H](COCc2ccccc2)[C@@H]1C(=O)O [(2S,1'R,2'R,3'R)-2-(2-carboxy-3-benzyloxymethylcyclopropyl)glycine]
- non-NMDA type agonist activity [1]: agonists of the non-NMDA type

SMILES: COC[C@H]1[C@H](C(=O)O)[C@@H]1[C@H](N)C(=O)O [(2S,1'R,2'R,3'R)-2-(2-carboxy-3-methoxymethylcyclopropyl)glycine]
- non-NMDA type agonist activity [1]: agonists of the non-NMDA type

SMILES: N[C@H](C(=O)O)[C@@H]1C[C@@H]1C(=O)O [(2S,1'R,2'S)-2-(2-carboxycyclopropyl)glycine]
- NMDA type agonist activity [2]: potent agonist of the NMDA type superior to NMDA

SMILES: NCC(CC(=O)O)c1ccc(Cl)cc1 (stereo not drawn) [Baclofen]
- IC50 ([3]; in nM): ~500 nM
- IC50 [3]: ~500 nM

SMILES: N[C@H](C(=O)O)C1[C@@H](C(=O)O)[C@@H]1C(=O)O (stereo partly drawn) [DCG-I, (2S,1'R,2'R,3'R)-2-(2,3-dicarboxycyclopropyl)glycine]
- Activity ratio [4]: 33
- concentration inhibiting (50%) monosynaptic reflex relative to the IC50 of Baclofen [5]: about 1/20
- monosynaptic reflex inhibition (in words) [5]: selectively inhibit monosynaptic reflex even at a low concentration
- IC50 [5]: 60 nM
- depolarization on adding CPP [6]: completely inhibited
- NMDA type agonistic activity [6]: agonists for NMDA receptors; also recorded: agonist of the NMDA type

SMILES: N[C@H](C(=O)O)C1[C@H](C(=O)O)[C@H]1C(=O)O (stereo partly drawn) [DCG-II, (2S,1'S,2'S,3'S)-2-(2,3-dicarboxycyclopropyl)glycine]
- Activity ratio [4]: 0.5
- concentration inhibiting (50%) monosynaptic reflex relative to the IC50 of Baclofen [5]: twice
- monosynaptic reflex inhibition (in words) [5]: selectively inhibit monosynaptic reflex even at a low concentration
- IC50 [5]: 1000 nM
- depolarization on adding CPP [6]: completely inhibited
- NMDA type agonistic activity [6]: agonists for NMDA receptors; also recorded: only a week agonistic activity of the NMDA type

SMILES: N[C@@H](CCC(=O)O)C(=O)O [L-glutamic acid, reference compound]
- Activity ratio [4]: 1
